Experimental data taken from US11732256B2, “Multivalent glycopeptides that tightly bind to target proteins” (Brandeis University, priority 2013, dated 2023).
*1 amine or outer side, *2 acyl side, *3 side chain or, on linkers, in order; H or OH if unused. Where a SMILES comes first, the peptide text is derived from it. [ ]: non-standard residue; d: D form. The star is where a group is joined. X1 = O=C([C@H](CCc1cn(C2CCC(OC3O[C@H](CO[C@H]4O[C@H](CO[C@H]5O[C@H](CO)[C@@H](O)[C@H](O)[C@@H]5O[C@H]5O[C@H](CO)[C@@H](O)[C@H](O)[C@@H]5O)[C@@H](O)[C@H](O[C@H]5O[C@H](CO)[C@@H](O)[C@H](O)[C@@H]5O[C@H]5O[C@H](CO)[C@@H](O)[C@H](O)[C@@H]5O)[C@@H]4O)[C@@H](O)[C@H](O[C@H]4O[C@H](CO)[C@@H](O)[C@H](O)[C@@H]4O[C@H]4O[C@H](CO)[C@@H](O)[C@H](O)[C@@H]4O[C@H]4O[C@H](CO)[C@@H](O)[C@H](O)[C@@H]4O)[C@@H]3O)CC2)nn1)N[*:1])[*:2]; For = O=C*

Tested on: HIV broadly neutralizing antibody 2G12
Assay: Radioactive 2G12-glycopeptide binding assay with protein G magnetic beads (binding curve and KD determination)
Settings: for 2G12 binding after truncation: truncated clones
Experimental: The sequences were obtained by cloning non-selected library DNA. […] FIG. 9B is an SDS-PAGE analysis of the click reaction of the non-selected peptides. Both peptides were transcribed and translated from PCR-amplified DNA in Pure System that contains 0.02 mg/mL T7 RNA polymerase and additional 1 mM each NTP. The peptides were labeled with 3H-histidine and the bands were visualized by fluorography.
For round 10 winners, 0.12-0.2 nM radioactive glycopeptides were incubated with 0, 0.25, 0.5, 1, 2, 4, 8, 16, 32 or 64 nM 2G12 in 40 μL of selection buffer at room temperature for 1 h. Then, the solution was added to 0.12 mg of pre-equilibrated Dynabeads Protein G and tumbled at room temperature for 30 min. The supernatant was removed and the beads were washed with 3×40 μL of selection buffer. The radioactivities of the supernatant and wash solutions were measured by liquid scintillation counting as unbound fractions. […] The beads were resuspended in 40 μL of selection buffer, heated at 70° C. for 30 min to elute the bound glycopeptides, chilled on ice for 5 min, and tumbled at room temperature for 10 min. The supernatant was removed, and the beads were washed with 40 μL of selection buffer and resuspended in 40 μL of selection buffer. The radioactivities of these solutions and suspensions were measured by liquid scintillation counting separately and the values were combined as apparent bound fractions. […] All experiments were done at least in triplicate. KDs were calculated as described in the footnote of Table 4 (below).

[1] = Table 6 mutants/truncations, radioactive binding assay

Row | Compound | Fmax [%] [1] | 2G12 binding after truncation | Kd [1] | Kd (Table 4, radiolabeled ribosomally translated glycopeptide, varied 2G12, room temperature, ± standard error of curve fit)
1 | For-[X1]PNCITQQDVR[X1]TSIPYTYTWPGSGSLGHHHHHHRDYKDDDDK-OH [Clone 10F3-Δ11, XPNCITQQDVRXTSIPYTYTWP] | 32% | – | – | –
2 | CC[C@H](C)[C@H](NC(=O)[C@H](CO)NC(=O)[C@H](CCCNC(=N)N)NC(=O)[C@H](CCc1cn(C2CCC(OC3O[C@H](CO[C@H]4O[C@H](CO[C@H]5O[C@H](CO)[C@@H](O)[C@H](O)[C@@H]5O[C@H]5O[C@H](CO)[C@@H](O)[C@H](O)[C@@H]5O)[C@@H](O)[C@H](O[C@H]5O[C@H](CO)[C@@H](O)[C@H](O)[C@@H]5O[C@H]5O[C@H](CO)[C@@H](O)[C@H](O)[C@@H]5O)[C@@H]4O)[C@@H](O)[C@H](O[C@H]4O[C@H](CO)[C@@H](O)[C@H](O)[C@@H]4O[C@H]4O[C@H](CO)[C@@H](O)[C@H](O)[C@@H]4O[C@H]4O[C@H](CO)[C@@H](O)[C@H](O)[C@@H]4O)[C@@H]3O)CC2)nn1)NC=O)C(=O)N1CCC[C@H]1C(=O)N[C@@H](Cc1c[nH]c2ccccc12)C(=O)N[C@@H](Cc1ccc(O)cc1)C(=O)N[C@H](C(=O)N[C@@H](Cc1ccc(O)cc1)C(=O)N[C@@H](CCCNC(=N)N)C(=O)N[C@@H](Cc1c[nH]c2ccccc12)C(=O)N[C@@H](CC(C)C)C(=O)N1CCC[C@H]1C(=O)N[C@@H](CC(N)=O)C(=O)NCC(=O)N[C@@H](CO)C(=O)NCC(=O)N[C@@H](CO)C(=O)N[C@@H](CC(C)C)C(=O)NCC(=O)N[C@@H](Cc1c[nH]cn1)C(=O)N[C@@H](Cc1c[nH]cn1)C(=O)N[C@@H](Cc1c[nH]cn1)C(=O)N[C@@H](Cc1c[nH]cn1)C(=O)N[C@@H](Cc1c[nH]cn1)C(=O)N[C@@H](Cc1c[nH]cn1)C(=O)N[C@@H](CCCNC(=N)N)C(=O)N[C@@H](CC(=O)O)C(=O)N[C@@H](Cc1ccc(O)cc1)C(=O)N[C@@H](CCCCN)C(=O)N[C@@H](CC(=O)O)C(=O)N[C@@H](CC(=O)O)C(=O)N[C@@H](CC(=O)O)C(=O)N[C@@H](CC(=O)O)C(=O)N[C@@H](CCCCN)C(=O)O)[C@@H](C)O (stereo partly shown) [Clone 10V1-Δ19, XRSIPWYTYRWLPN] (For-[X1]RSIPWYTYRWLPNGSGSLGHHHHHHRDYKDDDDK-OH; C-terminus assumed) | 20% | tight binding | – | –
3 | CC[C@H](C)[C@H](NC(=O)[C@H](CCCNC(=N)N)NC(=O)[C@H](CCCNC(=N)N)NC(=O)CNC(=O)[C@H](CC(=O)O)NC(=O)[C@H](CC(N)=O)NC(=O)[C@H](CC(C)C)NC(=O)[C@@H](NC(=O)[C@H](CCc1cn(C2CCC(OC3O[C@H](CO[C@H]4O[C@H](CO[C@H]5O[C@H](CO)[C@@H](O)[C@H](O)[C@@H]5O[C@H]5O[C@H](CO)[C@@H](O)[C@H](O)[C@@H]5O)[C@@H](O)[C@H](O[C@H]5O[C@H](CO)[C@@H](O)[C@H](O)[C@@H]5O[C@H]5O[C@H](CO)[C@@H](O)[C@H](O)[C@@H]5O)[C@@H]4O)[C@@H](O)[C@H](O[C@H]4O[C@H](CO)[C@@H](O)[C@H](O)[C@@H]4O[C@H]4O[C@H](CO)[C@@H](O)[C@H](O)[C@@H]4O[C@H]4O[C@H](CO)[C@@H](O)[C@H](O)[C@@H]4O)[C@@H]3O)CC2)nn1)NC=O)C(C)C)C(=O)N[C@H](C(=O)N[C@@H](CCC(N)=O)C(=O)N[C@@H](CCc1cn(C2CCC(OC3O[C@H](CO[C@H]4O[C@H](CO[C@H]5O[C@H](CO)[C@@H](O)[C@H](O)[C@@H]5O[C@H]5O[C@H](CO)[C@@H](O)[C@H](O)[C@@H]5O)[C@@H](O)[C@H](O[C@H]5O[C@H](CO)[C@@H](O)[C@H](O)[C@@H]5O[C@H]5O[C@H](CO)[C@@H](O)[C@H](O)[C@@H]5O)[C@@H]4O)[C@@H](O)[C@H](O[C@H]4O[C@H](CO)[C@@H](O)[C@H](O)[C@@H]4O[C@H]4O[C@H](CO)[C@@H](O)[C@H](O)[C@@H]4O[C@H]4O[C@H](CO)[C@@H](O)[C@H](O)[C@@H]4O)[C@@H]3O)CC2)nn1)C(=O)N[C@@H](CO)C(=O)N[C@@H](CS)C(=O)N[C@@H](CCC(=O)O)C(=O)N[C@@H](CC(C)C)C(=O)N1CCC[C@H]1C(=O)N[C@@H](CCc1cn(C2CCC(OC3O[C@H](CO[C@H]4O[C@H](CO[C@H]5O[C@H](CO)[C@@H](O)[C@H](O)[C@@H]5O[C@H]5O[C@H](CO)[C@@H](O)[C@H](O)[C@@H]5O)[C@@H](O)[C@H](O[C@H]5O[C@H](CO)[C@@H](O)[C@H](O)[C@@H]5O[C@H]5O[C@H](CO)[C@@H](O)[C@H](O)[C@@H]5O)[C@@H]4O)[C@@H](O)[C@H](O[C@H]4O[C@H](CO)[C@@H](O)[C@H](O)[C@@H]4O[C@H]4O[C@H](CO)[C@@H](O)[C@H](O)[C@@H]4O[C@H]4O[C@H](CO)[C@@H](O)[C@H](O)[C@@H]4O)[C@@H]3O)CC2)nn1)C(=O)N[C@H](C(=O)N[C@@H](CCCNC(=N)N)C(=O)N[C@@H](CCCNC(=N)N)C(=O)N[C@@H](CO)C(=O)NCC(=O)N[C@@H](CO)C(=O)NCC(=O)N[C@@H](CO)C(=O)N[C@@H](CC(C)C)C(=O)NCC(=O)N[C@@H](Cc1c[nH]cn1)C(=O)N[C@@H](Cc1c[nH]cn1)C(=O)N[C@@H](Cc1c[nH]cn1)C(=O)N[C@@H](Cc1c[nH]cn1)C(=O)N[C@@H](Cc1c[nH]cn1)C(=O)N[C@@H](Cc1c[nH]cn1)C(=O)N[C@@H](CCCNC(=N)N)C(=O)N[C@@H](CC(=O)O)C(=O)N[C@@H](Cc1ccc(O)cc1)C(=O)N[C@@H](CCCCN)C(=O)N[C@@H](CC(=O)O)C(=O)N[C@@H](CC(=O)O)C(=O)N[C@@H](CC(=O)O)C(=O)N[C@@H](CC(=O)O)C(=O)N[C@@H](CCCCN)C(=O)O)C(C)C)C(C)C (stereo partly shown) [Clone 10F5-Δ11, XVLNDGRRIVQXSCELPXVRRS] | 17% | – | > 0.2 µM | –
4 | XYKNIPSTTXNLYSKPXATVTTLKCKLNGNRIS [Clone 12G] | – | – | – | > 0.128 µM
5 | XDTLHLKQIGGXPNSITQQDVRXTSIPYTYTWP [Clone 10F3-C15S] | 63% | – | 0.00291 µM | –
6 | CC[C@H](C)[C@H](NC(=O)[C@H](CCCNC(=N)N)NC(=O)[C@H](Cc1c[nH]cn1)NC(=O)[C@H](Cc1ccccc1)NC(=O)[C@H](CC(C)C)NC(=O)[C@H](C)NC(=O)[C@H](CC(C)C)NC(=O)[C@H](C)NC(=O)[C@H](Cc1ccc(O)cc1)NC(=O)[C@H](CCc1cn(C2CCC(OC3O[C@H](CO[C@H]4O[C@H](CO[C@H]5O[C@H](CO)[C@@H](O)[C@H](O)[C@@H]5O[C@H]5O[C@H](CO)[C@@H](O)[C@H](O)[C@@H]5O)[C@@H](O)[C@H](O[C@H]5O[C@H](CO)[C@@H](O)[C@H](O)[C@@H]5O[C@H]5O[C@H](CO)[C@@H](O)[C@H](O)[C@@H]5O)[C@@H]4O)[C@@H](O)[C@H](O[C@H]4O[C@H](CO)[C@@H](O)[C@H](O)[C@@H]4O[C@H]4O[C@H](CO)[C@@H](O)[C@H](O)[C@@H]4O[C@H]4O[C@H](CO)[C@@H](O)[C@H](O)[C@@H]4O)[C@@H]3O)CC2)nn1)NC(=O)[C@H](CC(=O)O)NC(=O)[C@@H](NC(=O)[C@@H](NC(=O)[C@H](CCC(N)=O)NC(=O)[C@H](CCc1cn(C2CCC(OC3O[C@H](CO[C@H]4O[C@H](CO[C@H]5O[C@H](CO)[C@@H](O)[C@H](O)[C@@H]5O[C@H]5O[C@H](CO)[C@@H](O)[C@H](O)[C@@H]5O)[C@@H](O)[C@H](O[C@H]5O[C@H](CO)[C@@H](O)[C@H](O)[C@@H]5O[C@H]5O[C@H](CO)[C@@H](O)[C@H](O)[C@@H]5O)[C@@H]4O)[C@@H](O)[C@H](O[C@H]4O[C@H](CO)[C@@H](O)[C@H](O)[C@@H]4O[C@H]4O[C@H](CO)[C@@H](O)[C@H](O)[C@@H]4O[C@H]4O[C@H](CO)[C@@H](O)[C@H](O)[C@@H]4O)[C@@H]3O)CC2)nn1)NC(=O)[C@H](CCCCN)NC(=O)[C@H](CC(C)C)NC(=O)[C@H](C)NC(=O)[C@H](C)NC(=O)[C@H](CCc1cn(C2CCC(OC3O[C@H](CO[C@H]4O[C@H](CO[C@H]5O[C@H](CO)[C@@H](O)[C@H](O)[C@@H]5O[C@H]5O[C@H](CO)[C@@H](O)[C@H](O)[C@@H]5O)[C@@H](O)[C@H](O[C@H]5O[C@H](CO)[C@@H](O)[C@H](O)[C@@H]5O[C@H]5O[C@H](CO)[C@@H](O)[C@H](O)[C@@H]5O)[C@@H]4O)[C@@H](O)[C@H](O[C@H]4O[C@H](CO)[C@@H](O)[C@H](O)[C@@H]4O[C@H]4O[C@H](CO)[C@@H](O)[C@H](O)[C@@H]4O[C@H]4O[C@H](CO)[C@@H](O)[C@H](O)[C@@H]4O)[C@@H]3O)CC2)nn1)NC(=O)[C@H](CCc1cn(C2CCC(OC3O[C@H](CO[C@H]4O[C@H](CO[C@H]5O[C@H](CO)[C@@H](O)[C@H](O)[C@@H]5O[C@H]5O[C@H](CO)[C@@H](O)[C@H](O)[C@@H]5O)[C@@H](O)[C@H](O[C@H]5O[C@H](CO)[C@@H](O)[C@H](O)[C@@H]5O[C@H]5O[C@H](CO)[C@@H](O)[C@H](O)[C@@H]5O)[C@@H]4O)[C@@H](O)[C@H](O[C@H]4O[C@H](CO)[C@@H](O)[C@H](O)[C@@H]4O[C@H]4O[C@H](CO)[C@@H](O)[C@H](O)[C@@H]4O[C@H]4O[C@H](CO)[C@@H](O)[C@H](O)[C@@H]4O)[C@@H]3O)CC2)nn1)NC=O)C(C)C)[C@@H](C)O)C(=O)N[C@@H](CC(C)C)C(=O)NCC(=O)N[C@@H](CO)C(=O)NCC(=O)N[C@@H](CO)C(=O)N[C@@H](CC(C)C)C(=O)NCC(=O)N[C@@H](Cc1c[nH]cn1)C(=O)N[C@@H](Cc1c[nH]cn1)C(=O)N[C@@H](Cc1c[nH]cn1)C(=O)N[C@@H](Cc1c[nH]cn1)C(=O)N[C@@H](Cc1c[nH]cn1)C(=O)N[C@@H](Cc1c[nH]cn1)C(=O)N[C@@H](CCCNC(=N)N)C(=O)N[C@@H](CC(=O)O)C(=O)N[C@@H](Cc1ccc(O)cc1)C(=O)N[C@@H](CCCCN)C(=O)N[C@@H](CC(=O)O)C(=O)N[C@@H](CC(=O)O)C(=O)N[C@@H](CC(=O)O)C(=O)N[C@@H](CC(=O)O)C(=O)N[C@@H](CCCCN)C(=O)O (stereo partly shown) [Clone 10F2-Δ11, XXAALKXQVTDXYALALFHRIL] | 70% | tight binding | – | –
